# Data published in patent US5593984A, “Cephalosporin derivatives” (Yuhan Corporation, priority 1992, dated 1997).
# Key:
# Type in all cases: cell-based
# [1] = system: Ps. aeruginosa NCTC 10490; experiment: MIC by agar dilution, Ps. aeruginosa NCTC 10490; conditions: Pseudomonas aeruginosa, NCTC10490, 17 h, Mueller-Hinton agar, read-out: Minimal Inhibitory Concentration (MIC)
# Method in brief: (§1)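 MIC is the endpoint, obtained by agar dilution after 17±1 hours at 35°-37° C. on Mueller-Hinton agar containing doubling compound concentrations; strains inoculated at 10^6 CFU per ml.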
# Ps. aeruginosa DY-2 = experiment: MIC by agar dilution, Ps. aeruginosa DY-2; conditions: Pseudomonas aeruginosa, DY2, 17 h; Ps. aeruginosa DY-2; agar dilution, Mueller-Hinton agar; read-out: Minimal Inhibitory Concentration (MIC)
# Method in brief: as §1
# Staph. aureus Smith = experiment: MIC by agar dilution, Staph. aureus Smith; conditions: Staphylococcus aureus, 17 h, Mueller-Hinton agar, read-out: Minimal Inhibitory Concentration (MIC)
# Method in brief: as §1
# M. morganii DY-1 = experiment: MIC by agar dilution, M. morganii DY-1; conditions: Morganella morganii, DY1, 17 h; M. morganii DY-1; agar dilution, Mueller-Hinton agar; read-out: Minimal Inhibitory Concentration (MIC)
# Method in brief: as §1
# Staph. aureus ATCC 6538P = experiment: MIC by agar dilution, Staph. aureus ATCC 6538P; conditions: Staphylococcus aureus, ATCC6538P, 17 h; Staph. aureus ATCC 6538P; agar dilution, Mueller-Hinton agar; read-out: Minimal Inhibitory Concentration (MIC)
# Method in brief: as §1
# Staph. aureus C-57 = experiment: MIC by agar dilution, Staph. aureus C-57; conditions: Staphylococcus aureus, C57, 17 h, Mueller-Hinton agar, read-out: Minimal Inhibitory Concentration (MIC)
# Method in brief: as §1
# E. coli NIHJ JC-2 = experiment: MIC by agar dilution, E. coli NIHJ JC-2; conditions: Escherichia coli, NIHJJC2, 17 h; E. coli NIHJ JC-2; agar dilution, Mueller-Hinton agar; read-out: Minimal Inhibitory Concentration (MIC)
# Method in brief: as §1
# K. pneumoniae NCTC 9632 = experiment: MIC by agar dilution, K. pneumoniae NCTC 9632; conditions: Klebsiella pneumoniae, NCTC9632, 17 h; K. pneumoniae NCTC 9632; agar dilution, Mueller-Hinton agar; read-out: Minimal Inhibitory Concentration (MIC)
# Method in brief: as §1
# [2] = system: Ps. aeruginosa ATCC 10145; experiment: MIC by agar dilution, Ps. aeruginosa ATCC 10145; conditions: Pseudomonas aeruginosa, ATCC10145, 17 h, Mueller-Hinton agar, read-out: Minimal Inhibitory Concentration (MIC)
# Method in brief: as §1
# E. coli No. 29 = experiment: MIC by agar dilution, E. coli No. 29; conditions: Escherichia coli, 17 h; E. coli No. 29; agar dilution, Mueller-Hinton agar; read-out: Minimal Inhibitory Concentration (MIC)
# Method in brief: as §1
# Staph. aureus C-5216 = experiment: MIC by agar dilution, Staph. aureus C-5216; conditions: Staphylococcus aureus, C5216, 17 h, Mueller-Hinton agar, read-out: Minimal Inhibitory Concentration (MIC)
# Method in brief: as §1
# Ent. aerogenes IFO 12979 = experiment: MIC by agar dilution, Ent. aerogenes IFO 12979; conditions: Klebsiella aerogenes, IFO12979, 17 h, Mueller-Hinton agar, read-out: Minimal Inhibitory Concentration (MIC)
# Method in brief: as §1
# [3] = system: Ser. marcescens IFO 12648; experiment: MIC by agar dilution, Ser. marcescens IFO 12648; conditions: Serratia marcescens, IFO12648, 17 h; Ser. marcescens IFO 12648; agar dilution, Mueller-Hinton agar; read-out: Minimal Inhibitory Concentration (MIC)
# Method in brief: as §1
# P. vulgaris NCTC 8313 = experiment: MIC by agar dilution, P. vulgaris NCTC 8313; conditions: Proteus vulgaris, NCTC8313, 17 h; P. vulgaris NCTC 8313; agar dilution, Mueller-Hinton agar; read-out: Minimal Inhibitory Concentration (MIC)
# Method in brief: as §1
# [4] = system: S. epidermidis ATCC 12228; experiment: MIC by agar dilution, S. epidermidis ATCC 12228; conditions: Staphylococcus epidermidis, ATCC12228, 17 h; S. epidermidis ATCC 12228; agar dilution, Mueller-Hinton agar; read-out: Minimal Inhibitory Concentration (MIC)
# Method in brief: as §1
# B. subtilis ATCC 6633 = experiment: MIC by agar dilution, B. subtilis ATCC 6633; conditions: Bacillus subtilis, ATCC6633, 17 h; B. subtilis ATCC 6633; agar dilution, Mueller-Hinton agar; read-out: Minimal Inhibitory Concentration (MIC)
# Method in brief: as §1
# Prov. stuartii IFO 12930 = experiment: MIC by agar dilution, Prov. stuartii IFO 12930; conditions: Providencia stuartii, IFO12930, 17 h, Mueller-Hinton agar, read-out: Minimal Inhibitory Concentration (MIC)
# Method in brief: as §1
# E. coli DY-1 = experiment: MIC by agar dilution, E. coli DY-1; conditions: Escherichia coli, DY1, 17 h; E. coli DY-1; agar dilution, Mueller-Hinton agar; read-out: Minimal Inhibitory Concentration (MIC)
# Method in brief: as §1
# Ent. cloacae IFO 13535 = experiment: MIC by agar dilution, Ent. cloacae IFO 13535; conditions: Enterobacter cloacae, IFO13535, 17 h; Ent. cloacae IFO 13535; agar dilution, Mueller-Hinton agar; read-out: Minimal Inhibitory Concentration (MIC)
# Method in brief: as §1
# Staph. aureus C-5113 = experiment: MIC by agar dilution, Staph. aureus C-5113; conditions: Staphylococcus aureus, C5113, 17 h, Mueller-Hinton agar, read-out: Minimal Inhibitory Concentration (MIC)
# Method in brief: as §1
SMILES,MIC [1],MIC (Ps. aeruginosa DY-2),MIC (Staph. aureus Smith),MIC (M. morganii DY-1),MIC (Staph. aureus ATCC 6538P),MIC (Staph. aureus C-57),MIC (E. coli NIHJ JC-2),MIC (K. pneumoniae NCTC 9632),MIC [2],MIC (E. coli No. 29),MIC (Staph. aureus C-5216),MIC (Ent. aerogenes IFO 12979),MIC [3],MIC (P. vulgaris NCTC 8313),MIC [4],MIC (B. subtilis ATCC 6633),MIC (Prov. stuartii IFO 12930),MIC (E. coli DY-1),MIC (Ent. cloacae IFO 13535),MIC (Staph. aureus C-5113)
"CO/N=C(\C(=O)N[C@@H]1C(=O)N2C(C(=O)[O-])=C(C[n+]3ccn4cccc4c3)CS[C@H]12)c1nsc(N)n1 [Ex. 48, 7-β-[(Z)-2-(5-amino-1,2,4-thiadiazol-3-yl)-2-methoxyiminoacetamido]-3-(pyrrolo [1,2-a]pyrazinium-2-yl)methyl-3-cephem-4-carboxylate]",0.1 µg/mL,0.78 µg/mL,0.78 µg/mL,0.05 µg/mL,0.39 µg/mL,6.25 µg/mL,0.012 µg/mL,0.025 µg/mL,0.39 µg/mL,0.012 µg/mL,0.78 µg/mL,0.012 µg/mL,0.025 µg/mL,0.012 µg/mL,0.1 µg/mL,0.2 µg/mL,≤ 0.006 µg/mL,0.025 µg/mL,0.025 µg/mL,0.78 µg/mL
"CO/N=C(\C(=O)N[C@@H]1C(=O)N2C(C(=O)[O-])=C(C[n+]3ccn4c(CO)ccc4c3)CS[C@H]12)c1nc(N)sc1Cl [Ex. 49, 7-β-[(Z)-2-(2-amino-5-chlorothiazol-4-yl)-2-methoxyiminoacetamido]-3-(6-hydroxymethylpyrrolo[1,2-a]-pyrazinium-2-yl)methyl-3-cephem-4-carboxylate]",0.2 µg/mL,3.13 µg/mL,0.39 µg/mL,0.1 µg/mL,0.2 µg/mL,1.56 µg/mL,0.1 µg/mL,0.1 µg/mL,1.56 µg/mL,0.025 µg/mL,0.78 µg/mL,0.05 µg/mL,0.1 µg/mL,0.025 µg/mL,0.012 µg/mL,0.1 µg/mL,≤ 0.006 µg/mL,≤ 0.006 µg/mL,0.39 µg/mL,0.39 µg/mL
"CO/N=C(\C(=O)N[C@@H]1C(=O)N2C(C(=O)[O-])=C(C[n+]3ccn4c(CO)ccc4c3)CS[C@H]12)c1nsc(N)n1 [Ex. 50, 7-β-[(Z)-2-(5-amino-1,2,4-thiadiazol-3-yl)-2-methoxyiminoacetamido]-3-(6-hydroxymethylpyrrolo[1,2-a]-pyrazinium-2-yl)methyl-3-cephem-4-carboxylate]",0.1 µg/mL,1.56 µg/mL,0.78 µg/mL,0.012 µg/mL,0.39 µg/mL,12.5 µg/mL,≤ 0.006 µg/mL,0.012 µg/mL,0.78 µg/mL,≤ 0.006 µg/mL,0.78 µg/mL,≤ 0.006 µg/mL,0.012 µg/mL,0.012 µg/mL,0.05 µg/mL,0.1 µg/mL,≤ 0.006 µg/mL,≤ 0.006 µg/mL,0.05 µg/mL,1.56 µg/mL
"CO/N=C(\C(=O)N[C@@H]1C(=O)N2C(C(=O)[O-])=C(C[n+]3ccn4c(C(C)O)ccc4c3)CS[C@H]12)c1nsc(N)n1 (stereo partly drawn) [Ex. 51, 7-β-[(Z)-2-(5-amino-1,2,4-thiadiazol-3-yl)-2-methoxyiminoacetamido]-3-[6-(1-hydroxyethyl)pyrrolo[1,2-a]-pyrazinium-2-yl]methyl-3cephem-4-carboxylate]",0.2 µg/mL,3.13 µg/mL,1.56 µg/mL,0.1 µg/mL,0.78 µg/mL,50 µg/mL,0.025 µg/mL,0.05 µg/mL,1.56 µg/mL,0.025 µg/mL,1.56 µg/mL,0.025 µg/mL,0.05 µg/mL,0.05 µg/mL,0.1 µg/mL,0.2 µg/mL,0.012 µg/mL,0.025 µg/mL,0.1 µg/mL,1.56 µg/mL
"CO/N=C(\C(=O)N[C@@H]1C(=O)N2C(C(=O)[O-])=C(C[n+]3ccn4c(SCCO)ccc4c3)CS[C@H]12)c1nc(N)sc1Cl [Ex. 52, 7-β-[(Z)-2-(2-amino-5-chlorothiazol-4-yl)-2-methoxyiminoacetamido]-3-[6-(2-hydroxyethylthio)pyrrolo[1,2-a]-pyrazinium-2-yl]methyl-3-cephem-4-carboxylate]",1.56 µg/mL,12.5 µg/mL,1.56 µg/mL,0.2 µg/mL,0.2 µg/mL,6.25 µg/mL,0.2 µg/mL,0.1 µg/mL,1.56 µg/mL,0.1 µg/mL,0.78 µg/mL,0.1 µg/mL,0.2 µg/mL,0.012 µg/mL,0.1 µg/mL,0.1 µg/mL,0.025 µg/mL,0.025 µg/mL,0.78 µg/mL,1.56 µg/mL
"CO/N=C(\C(=O)N[C@@H]1C(=O)N2C(C(=O)[O-])=C(C[n+]3ccn4c(SCCO)ccc4c3)CS[C@H]12)c1nsc(N)n1 [Ex. 53, 7-β-[(Z)-2-(5-amino-1,2,4-thiadiazol-3-yl)-2-methoxyiminoacetamido]-3-[6-(2-hydroxyethylthio)pyrrolo[1,2-a]-pyrazinium-2-yl]methyl-3-cephem-4-carboxylate]",0.78 µg/mL,6.25 µg/mL,3.13 µg/mL,0.05 µg/mL,0.78 µg/mL,25 µg/mL,0.025 µg/mL,0.025 µg/mL,0.78 µg/mL,0.05 µg/mL,3.13 µg/mL,0.025 µg/mL,0.05 µg/mL,0.1 µg/mL,3.39 µg/mL,0.2 µg/mL,0.025 µg/mL,0.025 µg/mL,0.1 µg/mL,3.13 µg/mL
"CO/N=C(\C(=O)N[C@@H]1C(=O)N2C(C(=O)[O-])=C(C[n+]3ccn4ccc(CO)c4c3)CS[C@H]12)c1nc(N)sc1Cl [Ex. 54, 7-β-[(Z)-2-(2-amino-5-chlorothiazol-4-yl)-2-methoxyiminoacetamido]-3-(8-hydroxymethylpyrrolo[1,2-a]-pyrazinium-2-yl)methyl-3-cephem-4-carboxylate]",0.78 µg/mL,12.5 µg/mL,0.78 µg/mL,0.1 µg/mL,0.39 µg/mL,6.25 µg/mL,0.39 µg/mL,0.78 µg/mL,3.13 µg/mL,0.05 µg/mL,1.56 µg/mL,0.1 µg/mL,0.39 µg/mL,0.05 µg/mL,0.05 µg/mL,0.2 µg/mL,0.025 µg/mL,0.025 µg/mL,0.78 µg/mL,0.78 µg/mL
"CO/N=C(\C(=O)N[C@@H]1C(=O)N2C(C(=O)[O-])=C(C[n+]3ccn4ccc(CO)c4c3)CS[C@H]12)c1nsc(N)n1 [Ex. 55, 7-β-[(Z)-2-(5-amino-1,2,4-thiadiazol-3-yl)-2-methoxyiminoacetamido]-3-(8-hydroxymethylpyrrolo[1,2-a]-pyrazinium-2-yl)methyl-3-cephem-4-carboxylate]",0.1 µg/mL,1.56 µg/mL,1.56 µg/mL,0.025 µg/mL,0.78 µg/mL,25 µg/mL,0.012 µg/mL,0.025 µg/mL,0.78 µg/mL,≤ 0.006 µg/mL,3.13 µg/mL,0.025 µg/mL,0.025 µg/mL,0.05 µg/mL,0.2 µg/mL,0.1 µg/mL,≤ 0.006 µg/mL,0.012 µg/mL,0.1 µg/mL,6.25 µg/mL
